53 compounds from PMC7822874, “Chemoprotective antimalarials identified through quantitative high-throughput screening of Plasmodium blood and liver stage parasites” (Scientific Reports, 2021) can be followed below.

A word on the AC50: it is the concentration giving half of the maximal activity seen.

One experiment relates to Plasmodium falciparum Dd2 asexual blood stage parasites. Description: microbe, parasite or virus in culture. More on the design: species or system Plasmodium falciparum Dd2 in human erythrocytes; single determination (one 11-point concentration-response curve). The following applies: Plasmodium falciparum, DD2, Erythrocyte, 72 h.
On to `CCN1CCN(Cc2ccc(NC(=O)c3ccc(C)c(NC(=O)C4=NN(c5ccccc5)C(=O)C4)c3)cc2C(F)(F)F)CC1` [MLS003105987-01], for which the AC50 is 8.41 µM.

Still in this experiment, the particulars now being: Plasmodium falciparum, DD2, Erythrocyte, 72 h; read-out: AC50.
Turning to `COc1cncc(CN2CCC3(CC2)OC(=O)N(Cc2ccc(O)cc2)C3(C)c2ccccc2)c1` (centres unmarked) [NCGC00415566-01], the AC50 worked out at 9.44 µM.

On to `Cc1cc(NCc2ccco2)nc2cc(O)ccc12` [MLS000118315-01], for which the AC50 is 6.68 µM.

Turning to `COCCOc1ccnc(-c2noc([C@@H]3CCCN3Cc3cn(C)c4ccccc34)n2)c1` [NCGC00394869-01], the AC50 was determined as 19.3 µM.

Regarding `CCN1CCN(C(=O)c2ccc3c(c2)N(Cc2c(F)cccc2Cl)C(=O)c2ccccc2S3)CC1` [NCGC00108184-01], the AC50 is 0.00842 µM.

`O=c1cc(-c2ccccc2)[nH]c2ccc(F)cc12` [MLS000517821-01]: the AC50 stood at 5.96 µM.

For `COc1ccc(CC(=O)N2Cc3ccccc3CC3(CCCN3C)C2)cc1` (centres unmarked) [NCGC00377108-01], the AC50 amounted to 9.44 µM.

Regarding `COc1cccc(CN2CCC(N3CC(OCC4CC4)C34CCCCC4)CC2)n1` (centres unmarked) [NCGC00463412-01], the AC50 was 4.22 µM.

Consider `CC(C)CNC(=O)CN1CN(c2ccccc2)C2(CCN(C(=O)NC3CCCCC3)CC2)C1=O` [NCGC00473208-01], for which the AC50 worked out at 15 µM.

For `Cc1ccc(OCc2nc(C3CCN(C(=O)c4c5c(nc6ccccc46)CCCC5)CC3)no2)cc1` [NCGC00459905-01], the AC50 stood at 9.44 µM.

As to `O=C(c1ccccc1OCC1CCCN(Cc2ccncc2F)C1)N1CCCC1` (centres unmarked) [NCGC00427122-01], the concentration at half-maximal activity (AC50) turned out to be 10.6 µM.

`OC(CNCC(c1ccco1)N1CCCCC1)c1ccccc1` (centres unmarked) [MLS000097545-01]: the AC50 stood at 5.96 µM.

Regarding `CCOC(=O)c1ccc(Nc2nc(N)c3cc(OC)c(OC)cc3n2)cc1` [NCGC00107259-01], the AC50 turned out to be 1.88 µM.

As for `Oc1ccc(-c2ccccc2)cc1CN1CCCCCC1` [MLS001195126-01], the AC50 was determined as 0.266 µM.

As for `O=C1COCC2(CN(Cc3ccsc3)C2)CN1Cc1cccc(OC(F)(F)F)c1` [NCGC00418928-01], the AC50 was 17.2 µM.

Regarding `O=C(Nc1ccncc1)c1cc(-c2cccc(Br)c2)nc2ccccc12` [MLS001159350-01], the AC50 turned out to be 13.3 µM.

For the compound `NC(=O)C1CCN(CC(=O)Nc2cccc(C(=O)Nc3cccc(C(F)(F)F)c3)c2)CC1` [MLS000334956-01], the AC50 worked out at 6.68 µM.

`COc1cncc(Nc2cnc3ccc(-c4ccc(OC)c(OC)c4)nn23)c1` [NCGC00412563-01]: the AC50 was found to be 1.22 µM.

With `COc1ccc(OC)c([S+](=O)([O-])NC[C@H]2C[C@@H]3CCN2C[C@@H]3c2cc(-c3ccc(F)cc3)nn2C)c1` [NCGC00420960-01], the AC50 stood at 6.68 µM.

Take `CC(=O)Oc1c(-c2ccc(NC(=O)CC(C)C)cc2)c(-c2ccc(F)cc2)nn1-c1ccc(F)cc1` [NCGC00473192-01]: the AC50 is 13.3 µM.

In the case of `O=C(c1ccc(OC2CCN(Cc3c[nH]c4ccccc34)CC2)cc1)N1CCCCC1` [NCGC00429064-01], the AC50 was found to be 15 µM.

Take `NCCc1cccc(CN2CCCC(COc3ccccc3F)C2)c1` (centres unmarked) [NCGC00434821-01]: the AC50 was 2.66 µM.

For `CCOc1ccc2[nH]c3c(NCCN(C)C)ncnc3c2c1` [MLS001214990-01], the AC50 stood at 16.8 µM.

Turning to `Cc1noc(C)c1-c1cc2cc(CN(C)C)oc2c(NCCOc2ccccc2)n1` [NCGC00417493-01], the AC50 came out at 15.3 µM.

As to `COc1cc(C(=O)OCC(=O)N2CCCCC2C)cc(NC(=O)c2cccs2)c1OC` (centres unmarked) [MLS001003405-01], the AC50 came to 0.473 µM.

Consider `O=C(Nc1cccnc1)c1cn(-c2ccccc2)nc1-c1cccs1` [MLS000081870-01], for which the AC50 stood at 2.37 µM.

Regarding `Cc1ccccc1NC(=O)Nc1ccc2nc(N3CCN(C)CC3)cc(C)c2c1` [NCGC00126513-01], the AC50 is 1.5 µM.

Turning to `CC(=O)N1CCc2cc(Br)cc(S(=O)(=O)N3CCCCCC3)c21` [MLS000086258-01], the AC50 was 5.31 µM.

As to `CC(C)(C)Nc1nc(NC(C)(C)C)nc(-n2ccnc2)n1` [MLS000044025-01], the AC50 was 4.73 µM.

In the case of `Cc1ncsc1CN1CCCN(Cc2ccncc2)C(c2ccccc2)CC(=O)NCC1` (centres unmarked) [NCGC00467186-01], the AC50 turned out to be 8.41 µM.

In the case of `Cc1occc1C(=O)N1CCN(C(c2ccccc2)c2ccccc2)CC1` [MLS000089076-01], the AC50 was determined as 10.6 µM.

For `COCCN1C(=O)c2ccccc2C(C(=O)Nc2nc3ccccc3[nH]2)C12CCCC2` (centres unmarked) [NCGC00423488-01], the AC50 was 4.22 µM.

Turning to `O=S(=O)(c1ccc(F)cc1)N1CCN(/C(S)=N/CC2CCCO2)CC1` (centres unmarked) [MLS001148319-01], the AC50 amounted to 6.68 µM.

For `O=C(NCCC1=CCCCC1)c1ccc2c(=O)n3nc(Nc4ccccc4)sc3nc2c1` [NCGC00138829-01], the AC50 came to 4.73 µM.

In the case of `Cc1ccc2c(n1)N(C)[C@H](CO)CCN(Cc1ccc(C(F)(F)F)cc1)C2` [NCGC00395284-01], the AC50 was determined as 15.3 µM.

In the case of `CN(Cc1ccc(-n2cccn2)cc1)CC1CCN(CCc2ccc(F)cc2)CC1` [NCGC00425928-01], the concentration at half-maximal activity (AC50) worked out at 10.6 µM.

Regarding `CC(C)CCN1CCn2c(nn(-c3ccc([N+](=O)[O-])cc3)c2=O)C1` [NCGC00479600-01], the concentration at half-maximal activity (AC50) was found to be 17.2 µM.

For the compound `CCOC(=O)c1ccc(Nc2nc(=O)c(C(C)(C)C)n[nH]2)cc1` [MLS000044326-01], the AC50 was 13.3 µM.

For the compound `COc1ccc(NC(=O)c2ccc(-c3nnc4ccc(NC(=O)C5CCC5)cn34)cc2)cc1` [NCGC00429884-01], the half-maximal activity concentration (AC50) amounted to 4.22 µM.

In the case of `COc1cccc(CN2CCC3(CC2)OC(=O)N(Cc2ccccc2)C3(C)c2ccccc2)c1` (centres unmarked) [NCGC00415605-01], the AC50 came out at 15 µM.

Consider `CC(=O)Nc1ccc(NC(=O)c2c(C)oc3ccn(Cc4ccc(F)cc4)c(=O)c23)cc1` [NCGC00433889-01], for which the AC50 turned out to be 10.6 µM.

With `O=C(CSc1nc(-c2ccccc2)no1)N1CCN(c2ccc(F)cc2)CC1` [NCGC00127880-01], the concentration at half-maximal activity (AC50) worked out at 4.22 µM.

Take `OC(c1ccc(Cl)cc1)C(CN1CCOCC1)c1ccccc1` (centres unmarked) [MLS001173582-01]: the AC50 amounted to 2.99 µM.

Regarding `O=C1N=C(NC2CCCC2)C2(CCN(CC3CC3)C2)N1c1cc(F)cc(F)c1` (centres unmarked) [NCGC00374289-01], the AC50 came out at 1.5 µM.

Consider `Cc1nn2c3c(cnc2c1-c1ccccc1)C(=O)CC(c1ccco1)C3` (centres unmarked) [MLS000080714-01], for which the AC50 was determined as 9.44 µM.

On to `CCN1CCN(Cc2cc(Br)cc(Br)c2O)CC1` [MLS000530316-01], for which the half-maximal activity concentration (AC50) is 7.5 µM.

Regarding `COc1cccc(CN2C(=O)OC3(CCN(Cc4c[nH]c5ccccc45)CC3)C2(C)c2cccnc2)c1` (centres unmarked) [NCGC00415482-01], the concentration at half-maximal activity (AC50) was 8.41 µM.

`O=C(CN1CCN(C(=O)c2ccco2)CC1)Nc1cc(C(F)(F)F)ccc1Cl` [MLS000047443-01]: the AC50 worked out at 7.5 µM.

`CCOC(=O)c1cc(C)n(CC2CCC(C(=O)Nc3cccc(Cl)c3)CC2)c1C` (centres unmarked) [NCGC00141645-01]: the AC50 was determined as 8.41 µM.

For the compound `O[C@@H]1C[C@@](CNCc2cccc(Cl)c2)(COc2ccccc2)C[C@@H]1O` [NCGC00392187-01], the AC50 stood at 3.85 µM.

Turning to `CC(C)(C)c1ccc(C(=O)Nc2ccc(C(O)[C@H]3COCC(=O)N3Cc3ccccn3)cc2)cc1` (some centres unmarked) [NCGC00392498-01], the AC50 worked out at 5.31 µM.

For `COc1cccc(-c2nn3c(=O)cc(CN4CCN([S+](=O)([O-])c5ccc(C)cc5)CC4)nc3s2)c1` [NCGC00134088-01], the AC50 turned out to be 8.41 µM.

`Cc1noc(C)c1-c1cc2c(cc(C)n2CCN(C)C)c(-c2cccc(O)c2)n1` [NCGC00417178-01]: the AC50 stood at 17.2 µM.
